Assay results taken from PMC4278210, “Sargassopenillines A–G, 6,6-Spiroketals from the Alga-Derived Fungi Penicillium thomii and Penicillium lividum” (Marine Drugs, 2014).

Assays:
[1] = Radical scavenging activity against DPPH
Procedure: The experiments were performed as previously reported.

[2] = tested on: oncogenic nuclear factor AP-1; experiment: Basal AP-1-dependent transcriptional activity, luciferase reporter in JB6 Cl41 cells; assay type: cell-based; conditions: Mus musculus; JB6 Cl41 cells with AP-1 luciferase reporter; after 12 h of treatment; read-out: inhibition of transcriptional activity of AP-1, IC50
Procedure: The effect of compounds 1–3 and 7 on the basal AP-1-dependent transcriptional activity was also studied using JB6 Cl41 cells stably expressing a luciferase reporter gene controlled by an AP-1-DNA binding sequence.
The effects of the compounds on the basal transcriptional activities of AP-1 were evaluated using the JB6 Cl41 cell line stably expressing a luciferase reporter gene controlled by an AP-1-DNA binding sequence. The experiments were performed as previously reported with slight modifications.

[3] = tested on: CD-1 murine peritoneal macrophages; experiment: Macrophage adhesion test; assay type: cell-based; conditions: Mus musculus, 10 µM (non-toxic concentration), 2 h incubation at 37 °C
Procedure: Mice were sacrificed by cervical dislocation. Peritoneal macrophages were isolated using standard procedures. For this purpose, 3 mL of PBS (pH 7.4) was immediately injected into the peritoneal cavity and the body intensively palpated for 1–2 min. Then, the peritoneal fluid was aspirated with a syringe and transferred to Petri dishes. Petri dishes with the fluid were incubated at 37 °C for 1–2 h to facilitate attachment of peritoneal macrophages to the dish. Then, a cell monolayer was triply flushed with PBS (pH 7.4) to delete attendant lymphocytes, fibroblasts and erythrocytes. Subsequently, macrophages were removed from the surface of the dishes with a scraper and flow of a saline solution, and then placed on an ice bath until use. The working concentration of cells was usually 1–2 × 10^6 cells/mL. The number of adhered cells was estimated according to standard method with some modifications.
Twenty […] of test compound solutions (at non-toxic concentration 10 μM) and […] of macrophage suspension were added to 96-well flat-bottom plates. After incubation for 2 h at 37 °C, cells were fixed with 70% ethanol solution ([…] per well) for 15 min at RT. […] Finally, the SDS/trypan blue solution absorbance was detected spectrophotometrically at 590 nm using a plate reader. The percentage of adhered cells compared to the control level of Trypan blue absorbance was calculated. […]

[4] = Cytotoxicity towards CD-1 mouse splenocytes; assay type: cell-based; conditions: assayed up to 100 µM, read-out: cytotoxicity against splenocytes IC50
Procedure: The effect of the compounds on the cells viability was evaluated using the MTS test, which is based on the reduction of MTS into its formazan product by alive cells. Cytotoxicity towards CD-I mouse splenocytes was determined according to Freshney. Hemolytic activity towards CD-I mouse erythrocytes was determined as previously described.

Row | SMILES | IC50 [1] [µM] | inhibition at 10 µM [3] [%] | other results
1 | O=C1O[C@H]([C@@H](O)CO)C(O)=C1O [Ascorbic acid, reference compound] | 21.3 | – | –
2 | Cc1c(O)cc2c(c1O)CO[C@@]1(O[C@@H](C)CC[C@@H]1O)[C@@H]2O [compound 1, sargassopenilline A] | 100 | – | –
3 | CC(=O)OC1C2=C(CO[C@@]13O[C@@H](C)C[C@H](O)[C@@H]3OC(C)=O)C(=O)C(C)(OC(C)=O)C(=O)C2 (stereo partly shown) [compound 3, sargassopenilline C] | – | – | IC50 [2]: 15 µM
4 | CC(=O)OC1C2=C(CO[C@@]13O[C@@H](C)CC[C@@H]3OC(C)=O)C(=O)C(C)=C(O)C2=O (stereo partly shown) [compound 4, sargassopenilline D] | – | 30 to 40 | –
5 | C[C@H]1C[C@H](O)C[C@@]2(CC3=C(CO2)C(=O)[C@](C)(O)[C@H](O)C3)O1 [compound 5, sargassopenilline E] | 50 | – | IC50 [4]: 38 µM
6 | CC(=O)O[C@H]1CC[C@H](C)O[C@@]12OCC1=C(C[C@@H](O)[C@@](C)(O)C1=O)C2O (stereo partly shown) [compound 6, sargassopenilline F] | – | 30 to 40 | –
